Results reported in patent US8541464B2, “Treatment of atrial fibrillation” (HUYA Biosciences International LLC, priority 2009, dated 2013).
Values joined by “and” are separate entries in the source; they are usually repeats but may differ in a detail not shown here. Equal values may be shown once.

How the values were obtained:
[1] = Plasma concentration in dog cardiovascular safety study; format: in vivo
Experimental: (§1) Dogs were administered morphine (2 mg/kg subcutaneously) approximately 10-19 minutes prior to administration of anesthesia. Dogs were anesthetized with 1% α-chloralose (100 mg/kg intravenous), followed by a constant infusion of α-chloralose (35-75 mg/kg/hr, IV). Two healthy female dogs were administered escalating doses of sulcardine sulfate intravenously over 15 minutes in an acetate buffer system at dose levels of 10, 30 and 90-mg/kg with dose administrations separated by 60 minutes. Following drug administration, dogs were evaluated for ventricular, pulmonary and peripheral hemodynamic changes using Swanz Ganz and femoral catheters as well as by monitoring of blood oxygen saturation, test article blood level, body temperature, blood biochemistries, hematologies, ECG, and histamine.
The mean peak sulcardine sulfate concentrations which peaked generally at the […] of each 15 minute infusion of sulcardine sulfate at 10, 30 and 90 mg/kg were 1.8, 11.2 and 100.1 μg/mL respectively which translated into approximately 4, 24.6 and 218 μM.

[2] = system: anesthetized dogs; assay: Cardiovascular safety in anesthetized dogs with diphenhydramine pretreatment; format: in vivo, dog; conditions: diphenhydramine pre-treated animals
Experimental: as §1, with “90 mg/kg” for “90-mg/kg”, “minutes. Another set of two dogs received test article after pre-treatment with diphenhydramine (1 mg/kg administered 30 minutes prior to start of test article infusion).” for “minutes.”, “biochemistry, hematology,” for “biochemistries, hematologies,”, “histamine levels.” for “histamine.”
Group 2 Animals: Sulcardine sulfate at 10, 30 and 90 mg/kg with diphenhydramine (1 mg/kg) administered approximately 30 minutes before treatment with 10 mg/kg sulcardine sulfate. Animals pre-treated with diphenhydramine (H1 antagonist) and dosed with sulcardine sulfate at 10 mg/kg, presented hemodynamic changes which are mediated by H2 receptors. The changes resembled those noted in Group 1 animals, but were of a reduced magnitude. […]

[3] = system: Cynomolgus monkeys; assay: Cardiovascular safety in anesthetized Cynomolgus monkeys, escalating 15-minute IV infusions; format: in vivo, Cynomolgus monkey
Experimental: Female Cynomolgus monkeys were administered morphine (2 mg/kg subcutaneously) prior to induction of anesthesia. Monkeys were anesthetized with 1% α-chloralose (100 mg/kg intravenous), followed by a constant infusion of α-chloralose 40 mg/kg/hr, IV which was reduced to 30 mg/kg/hr approximately 92 to 98 min pre treatment due to low blood pressure. Monkeys were placed on a heating pad set to maintain the animal's body temperature at approximately 37° C. Body temperature was monitored throughout the experiment via a rectal thermometer or via the Swan Ganz (thermodilution catheter) once implanted. Monkeys were intubated and placed on a ventilator supplemented with oxygen to maintain oxygenation within the normal physiological range. The animals were mechanically ventilated at a rate of 12 breaths/minute and a pressure of 17-18 cm H2O. The following parameters were regularly monitored in order to ensure proper ventilation of the animals but are not reported: SpO2, inspiratory and expiratory CO2, inspiratory O2 and respiratory rate.
(§2) A Swan Ganz (thermodilution catheter) was inserted into the right femoral vein via phlebotomy and advanced into the pulmonary artery for cardiac output measurements. A catheter was inserted in the left femoral artery via an arteriotomy for blood gas determination. Another catheter was inserted in the left femoral vein for blood collection for toxicokinetic evaluation. Finally, an incision was also performed on the left side of the neck to expose the left carotid artery and an electronic dual pressure sensor catheter (Millar) was placed via arteriotomy and advanced into the left ventricle. The catheter was positioned to simultaneously collect left ventricle blood pressure measurements as well as aortic pressure. In addition, a temporary catheter was placed in any of the cephalic veins for administration of Lactated Ringers at 10 mL/kg/hr throughout the course of the experiment.
Following surgical preparation, hemodynamic and electrocardiographic parameters were allowed to stabilize for at least 15 minutes. The vehicle control and test article were then administered, and hemodynamic, electrocardiographic parameters were monitored. Histamine and plasma PK data was obtained.

[4] = Plasma concentration in primate cardiovascular safety study; format: in vivo, Cynomolgus monkey
Experimental: as §2
Following surgical preparation, hemodynamic and electrocardiographic parameters were allowed to stabilize for at least 15 minutes. The vehicle control and test article were then administered, and hemodynamic, electrocardiographic parameters were monitored. Histamine and plasma PK data was obtained. […]

[5] = Plasma concentration in minipig cardiovascular safety study; format: in vivo
Experimental: as §2
Following surgical preparation, hemodynamic and electrocardiographic parameters were allowed to stabilize for at least 15 minutes. The vehicle control and test article were then administered, and hemodynamic, electrocardiographic, histamine and PK parameters were monitored.
Peak plasma concentrations of sulcardine sulfate increased with increasing dose. […]

[6] = system: dogs; assay: Heart rate and blood pressure during slow (45 min) infusion in dogs; format: in vivo, dog; conditions: for Heart rate / Mean blood pressure: 14 mg/kg i.v. over 45 minutes
Experimental: Three additional animals received sulcardine sulfate (14 mg/kg, i.v.) infused over 45 minutes. The purpose of this study was to investigate whether or not a slow infusion (45 min) of sulcardine sulfate would affect heart rate and blood pressure. […] The change in blood pressure was modest, most likely due to a compensatory increase in the resting heart rate.

sulcardine sulfate
mean peak plasma concentration ([1]; 90 mg/kg, 15 minute infusion): 100.1 μg/mL and ~218 μM | Cmax ([1]; dogs, read-out: Cmax that led to observed side effects such as hypotension): 25 µM | mortality ([2]; 90 mg/kg, final 15-minute infusion): all animals succumbed | severity of tachycardia ([2]; after completion of dosing at 30 mg/kg): above 200 % of baseline | heart rate (HR) change (relatively stable) ([3]; 10 mg/kg): ≤ 10% | histamine levels ([3]; 10 mg/kg): no appreciable increases | PR interval increase ([3]; 10 mg/kg, per animal): +18% and +30% | increase of QRS from baseline ([3]; 10 mg/kg, per animal): 11% and 26% | conduction abnormality ([3]; 30 mg/kg infusion, animal 1501A): right bundle branch block (RBBB) | mean pulmonary arterial pressure increase ([3]; 30 mg/kg, at the completion of infusion): up to +245% | conduction abnormality ([3]; 90 mg/kg infusion / shortly before death, animal 1602B): sino-atrial block with a ventricular escape rhythm and RBBB | mortality ([3]; 90 mg/kg, before completion of the 15-minute infusion): death in both animals | QRS interval increase from baseline ([3]; 90 mg/kg, per animal): 88% and 133% | QTcB increase from baseline ([3]; 90 mg/kg, per animal): 78 ms and 112 ms | PR interval increase ([3]; 30 and 90 mg/kg): Further increases were noted | histamine levels ([3]; Animal No. 1501A, after 10 minutes of the 30 mg/kg infusion): transient increases | histamine levels ([3]; Animal No. 1602B, any dose levels): No appreciable increases | mean peak plasma concentration ([4]; 90 mg/kg, 15 minute infusion): 845.5 ug/mL and 1,860.1 μM | Cmax ([4]; primates, read-out: Cmax that led to observed side effects such as hypotension): 21 µM | mean peak plasma concentration ([5]; 90 mg/kg, 15 minute infusion): 25.6 ug/mL and 56.3 μM | Cmax ([5]; minipigs, read-out: Cmax that led to observed side effects such as hypotension): 13.6 µM | Heart rate ([6]; time 10 minutes): 95.0 ± 7.6 bpm | Mean blood pressure ([6]; time 10 minutes): 165.3 ± 0.3 mmHg | Heart rate ([6]; time 25 minutes): 115.0 ± 5.8 bpm | Mean blood pressure ([6]; time 25 minutes): 167.7 ± 9.8 mmHg | Heart rate ([6]; time 40 minutes): 115.0 ± 5.0 bpm | Mean blood pressure ([6]; time 40 minutes): 162.7 ± 11.3 mmHg | Heart rate ([6]; time 55 minutes): 103.3 ± 6.0 bpm | Mean blood pressure ([6]; time 55 minutes): 152.0 ± 16.2 mmHg | effect of slow intravenous administration on resting blood pressure and/or heart rate ([6]; total intravenous dose of 14 mg/kg over 45 min): did not result in a marked change in resting blood pressure and/or heart rate
